From ChEMBL document CHEMBL5356952, “Design, synthesis, and biological evaluation of deuterated indolepropionic acid derivatives as novel long-acting pan PPARα/γ/δ agonists” (Bioorg Med Chem, 2023) come the findings set out here.

The nature of data set [1]: Metabolic stability in rat liver microsomes assessed as half life preincubated for 5 mins followed by NADPH addition and measured upto 60 mins by LC-MS analysis. It is filed as ADME, Microsome. As to conditions: time < 65 min. In general terms: Liver microsomes are vesicles of endoplasmic reticulum, rich in cytochrome P450 enzymes.
In data set [2] the target is T1, Peroxisome proliferator-activated receptor delta (Homo sapiens, UniProt Q03181).
T1 sequence (Q03181 whole entry): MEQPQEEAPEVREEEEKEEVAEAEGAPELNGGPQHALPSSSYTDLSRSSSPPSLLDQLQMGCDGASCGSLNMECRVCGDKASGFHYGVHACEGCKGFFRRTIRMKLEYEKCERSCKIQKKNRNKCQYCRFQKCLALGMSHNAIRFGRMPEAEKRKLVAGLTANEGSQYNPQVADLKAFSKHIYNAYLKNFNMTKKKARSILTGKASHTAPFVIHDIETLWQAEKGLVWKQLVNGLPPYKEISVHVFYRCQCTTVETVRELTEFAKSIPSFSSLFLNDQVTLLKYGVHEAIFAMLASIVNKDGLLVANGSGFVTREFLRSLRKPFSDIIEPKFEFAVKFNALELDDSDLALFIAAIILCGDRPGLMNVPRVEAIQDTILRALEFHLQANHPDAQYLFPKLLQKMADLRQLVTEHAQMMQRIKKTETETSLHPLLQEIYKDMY
Nature of the data set: Agonist activity at PPARdelta (unknown origin).

In data set [3] the target is T2, Peroxisome proliferator-activated receptor alpha (Homo sapiens, UniProt Q07869).
T2 sequence (Q07869 whole entry): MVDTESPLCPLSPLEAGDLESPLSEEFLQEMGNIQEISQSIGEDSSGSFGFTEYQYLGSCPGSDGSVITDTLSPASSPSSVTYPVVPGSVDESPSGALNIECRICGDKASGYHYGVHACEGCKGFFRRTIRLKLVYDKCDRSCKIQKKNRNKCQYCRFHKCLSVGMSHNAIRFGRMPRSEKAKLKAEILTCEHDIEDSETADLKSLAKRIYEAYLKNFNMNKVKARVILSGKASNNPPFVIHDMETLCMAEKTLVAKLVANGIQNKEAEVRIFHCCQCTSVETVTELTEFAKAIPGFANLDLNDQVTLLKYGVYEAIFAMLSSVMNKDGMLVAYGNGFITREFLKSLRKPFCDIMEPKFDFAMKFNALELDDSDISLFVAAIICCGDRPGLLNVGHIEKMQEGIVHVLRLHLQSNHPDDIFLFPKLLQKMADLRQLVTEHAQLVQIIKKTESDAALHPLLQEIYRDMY
Nature of the data set: Agonist activity at PPARalpha (unknown origin).

Data set [4] deals with T3, Peroxisome proliferator-activated receptor gamma (Homo sapiens, UniProt P37231).
T3 sequence (P37231 whole entry): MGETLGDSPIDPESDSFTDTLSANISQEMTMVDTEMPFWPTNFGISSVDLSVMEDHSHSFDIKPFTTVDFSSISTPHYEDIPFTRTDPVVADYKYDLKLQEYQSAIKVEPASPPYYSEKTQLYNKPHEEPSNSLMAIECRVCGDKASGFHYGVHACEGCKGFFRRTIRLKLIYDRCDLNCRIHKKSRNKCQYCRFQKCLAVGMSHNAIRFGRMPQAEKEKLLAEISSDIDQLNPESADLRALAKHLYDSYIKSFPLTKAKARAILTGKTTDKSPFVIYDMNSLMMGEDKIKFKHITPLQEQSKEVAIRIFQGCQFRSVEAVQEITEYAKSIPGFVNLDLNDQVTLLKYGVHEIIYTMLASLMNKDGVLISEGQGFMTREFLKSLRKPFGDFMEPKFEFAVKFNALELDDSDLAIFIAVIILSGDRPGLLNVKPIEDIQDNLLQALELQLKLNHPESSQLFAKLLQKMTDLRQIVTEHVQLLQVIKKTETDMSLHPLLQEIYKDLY
Nature of the data set: Agonist activity at PPARgamma (unknown origin).

A short description of data set [5]: Half life in rat. In kind it is ADME. As to conditions: in vivo.

Turning to `[2H]C([2H])(Cc1cn(S(=O)(=O)c2ccc3c(c2)CCO3)c2ccc(OC)cc12)C(=O)O`, the half-life (in general, how long it takes for the measured level to halve) in data set [1] is 67.2 min.
In the case of `[2H]C([2H])(Cc1cn(S(=O)(=O)c2ccc(OC)cc2)c2ccc(OC)cc12)C(=O)O`, the half-life in data set [1] is 69.8 min. In addition, the EC50 (commonly the concentration needed to bring the measured effect to its halfway point) was 850 nM in data set [2] and 980 nM in data set [3].
Turning to `[2H]C([2H])(Cc1cn(S(=O)(=O)c2ccc(C3CC3)cc2)c2ccc(OC)cc12)C(=O)O`, the half-life in data set [1] is 63.8 min.
As to `[2H]C([2H])(Cc1cn(S(=O)(=O)c2ccc(OC(F)(F)F)cc2)c2ccc(OC)cc12)C(=O)O`, the half-life in data set [1] amounted to 73.6 min. Also, the results for the EC50 in data set [4] and in data set [3] were 950 nM and 1260 nM, respectively.
As to `[2H]C([2H])(Cc1cn(S(=O)(=O)c2ccc(OC)cc2)c2ccc(C3CC3)cc12)C(=O)O`, in data set [1], the half-life was 68.5 min. The EC50 in data set [2] came to 2970 nM; in data set [3] it was 2520 nM.
`COc1ccc(S(=O)(=O)n2cc(CCC(=O)O)c3cc(OC)ccc32)cc1` [INDEGLITAZAR]: the half-life in data set [1] was 46.5 min; in data set [5] it was 84 min. Moreover, the EC50 was 940 nM in data set [2] and 1150 nM in data set [3].
